Assay results reported in patent US5147876A, “2,6-di,2,4,6-, 2,5,6-tri and 2,4,5,6-tetra-substituted pyrimidines, their pharmaceutically acceptable salts, pharmaceutical compositions containing same and their use in the treatment of neurological diseases” (Mitsui Petrochemical Industries, Ltd., priority 1988, dated 1992).

Assays:
[1] = system: neuro-2a (mouse neuroblastoma cells); assay: Action on neuro-2a: proportion of cells containing outgrown neurites; format: cell-based; settings: mean ± S.D.
Procedure: (§1) The effects of the compounds of this invention on neuroblastoma cells were examined by the following method.
(§2) Mouse neuro 2a cells in the logarithmic growth period in the Dulbecco's modified Eagle's medium DMEM, containing 100 units/ml of penicillin G sodium and 100 micrograms/ml of streptomycin sulfate]containing 10 % of FCS were seeded in a 48-well plate so that the number of cells was 1,000 cells/well, and cultured for one day in 0.25 ml of the culture fluid in each well in an incubator containing 5 % of carbon dioxide gas in air at 37° C. Then, a 4 % aqueous glutaraldehyde solution in the same amount as a medium (0.25 ml) was added, and the culture fluid was left to stand at room temperature for 2 hours to fix the cells. After washing with water, a 0.05 % aqueous solution of methylene blue was added to stain the cells Under a microscope, the number of cells containing outgrown neurites (cells having at least one neurite with a length of at least two times as large as the long diameter of the cell) was counted visually, and the proportion of these cells in the entire cells was calculated. The well was observed over 5 or more visual fields (at least 2 % of the entire surface area of the well) continuous to the left and right from a mark put at the center of the well, and more than 200 cells was counted. One drug compound was used in 6 different concentrations at most, and three runs were conducted for each concentrations.

[2] = system: NS-20Y (mouse neuroblastoma cells); assay: Activity on NS-20Y cells: appearance of neurites; format: cell-based
Procedure: as §1, §2
Mouse neuroblastoma cells NS-20Y were similarly cultured in a dish coated with polyornithine, and the effects of the compounds were examined.

SMILES | Number of cells having neurites with a length at least two times the diameter of each cell/total number of cells ([1]; 0.1 mM) [%] | Number of cells having neurites with a length at least two times the diameter of each cell/total number of cells ([1]; 0.3 mM) [%] | Number of cells in which neurites appeared/total number of cells ([2]; 24 hours, 0.4 mM) | Number of cells having neurites with a length at least two times the diameter of each cell/total number of cells ([1]; 0.03 mM) [%] | Number of cells in which neurites appeared/total number of cells ([2]; 24 hours, 0.1 mM) | Number of cells having neurites with a length at least two times the diameter of each cell/total number of cells ([1]; 1 mM) [%] | Number of cells in which neurites appeared/total number of cells ([2]; 48 hours, 0.1 mM) | also measured
CN(C(=O)c1ccccc1)c1nc(N2CCC(c3ccccc3)CC2)ncc1F [Compound 432] | 2.9 ± 1.0 | 3.6 ± 1.7 | 7/50 | – | – | – | – | Number of cells in which neurites appeared/total number of cells ([2]; 24 hours, 0.02 mM): 7/50; Number of cells in which neurites appeared/total number of cells ([2]; 48 hours, 0.4 mM): 4/50
CNc1ccnc(N2CCC(c3ccccc3)CC2)n1.O=C(O)/C=C\C(=O)O [Compound 1026, 4-Methylamino-2-(4-phenylpiperidino)pyrimidine maleate] | 5.6 ± 2.2 | – | – | 3.5 ± 0.5 | 31/50 | – | – | Number of cells in which neurites appeared/total number of cells ([2]; 24 hours, 0.02 mM): 4/50; Number of cells in which neurites appeared/total number of cells ([2]; 48 hours, 0.02 mM): 2/50
CNc1ccnc(N2CCCCC2)n1 [Compound 1014] | 4.7 ± 0.7 | 7.6 ± 1.5 | 9/50 | – | 3/50 | – | – | Number of cells in which neurites appeared/total number of cells ([2]; 48 hours, 0.4 mM): 6/50
CN(C(=O)C(C)(C)C)c1ccnc(N2CCC(c3ccccc3)CC2)n1 [Compound 224] | 5.5 ± 1.5 | – | – | 4.6 ± 1.7 | – | – | – | Number of cells in which neurites appeared/total number of cells ([2]; 24 hours, 0.02 mM): 6/50; Number of cells in which neurites appeared/total number of cells ([2]; 48 hours, 0.02 mM): 3/50
CC(=O)N(C)c1cc(C)nc(N2CCCCC2)n1 [Compound 384] | – | 10.4 ± 2.5 | 8/50 | – | – | 10.8 ± 7.2 | – | Number of cells in which neurites appeared/total number of cells ([2]; 48 hours, 0.4 mM): 3/50
CC(=O)N(C)c1nc(N2CCC(c3ccccc3)CC2)ncc1C [Compound 416] | 13.2 ± 1.3 | 10.8 ± 1.5 | 11/50 | – | 7/50 | – | 2/50 | –
Cc1ccc(S(=O)(=O)O)cc1.Cc1ccccc1C(=O)N(C)c1ccnc(N2CCC(c3ccccc3)CC2)n1 [Compound 171-7] | 6.7 ± 3.1 | – | – | 8.5 ± 1.0 | 4/50 | – | 2/50 | –
CNc1nc(N2CCCCC2)ncc1C [Compound 1094] | 5.4 ± 1.9 | 16.9 ± 1.2 | 7/48 | – | 4/54 | 10.9 ± 1.1 | – | Number of cells in which neurites appeared/total number of cells ([2]; 48 hours, concentration printed "0. mM"): 2/50
CN(C(=O)c1ccccc1)c1ccnc(N2CCOCC2)n1 [Compound 336] | 5.8 ± 2.4 | 6.3 ± 2.8 | – | – | – | – | – | Number of cells in which neurites appeared/total number of cells ([2]; 24 hours, 0.2 mM): 3/54; Number of cells in which neurites appeared/total number of cells ([2]; 48 hours, 0.5 mM): 2/50
CN(C(=O)c1ccccc1)c1ccnc(N2CCNCC2)n1 [Compound 344] | 4.7 ± 1.8 | 4.5 ± 2.1 | – | 4.0 ± 1.7 | – | – | – | Number of cells having neurites with a length at least two times the diameter of each cell/total number of cells ([1]; 0.01 mM): 3.6 ± 0.7%; Number of cells in which neurites appeared/total number of cells ([2]; 24 hours, 0.2 mM): 3/51; Number of cells in which neurites appeared/total number of cells ([2]; 48 hours, 0.5 mM): 2/49
COCc1nc(N2CCCCC2)ncc1C(=O)OC [Compound 820, 2-piperidino-4-methoxymethyl-5-methoxycarbonylpyrimidine] | – | – | – | – | 4/50 | 8.4 ± 1.1 | 4/50 | Number of cells having neurites with a length at least two times the diameter of each cell/total number of cells ([1]; 3 mM): 8.8 ± 2.3%; Number of cells in which neurites appeared/total number of cells ([2]; 24 hours, 0.5 mM): 5/53; Number of cells in which neurites appeared/total number of cells ([2]; 48 hours, 0.25 mM): 5/55
CN(C(=O)c1ccc(F)cc1)c1ccnc(N2CCC(c3ccccc3)CC2)n1 [Compound 242] | 17.0 ± 2.3 | 12.8 ± 6.3 | 6/50 | – | – | 9.4 ± 3.9 | 6/50 | Number of cells in which neurites appeared/total number of cells ([2]; 24 hours, 0.2 mM): 4/50; Number of cells in which neurites appeared/total number of cells ([2]; 48 hours, 0.2 mM): 11/50
